Reference: patent US20140302217A1, “PRESERVATIVE COMBINATIONS COMPRISING PROPIONIC ACID AND VANILLIN AND/OR CINNAMIC ACID” (Purac Biochem B.V., priority 2011, published 2014)

Key:
Penicillium sp (Pen381) = test: MEA agar plate colony growth test; format: cell-based; details: single component, agar plates
Procedure: (§1) Each experiment existed of 10 MEA agar plates containing a successive amount of component, starting from 0 ppm to the maximal used concentration.
(§2) MEA was prepared by dissolving 20 g of Malt extract (Difco, England), 1 g of Peptone (Becton Dickinson, USA), 20 g of glucose and 20 g of bacteriological agar (No. 1. Oxoid, England) in 11 of dematerialized water. The pH was adjusted to 3.2 by adding 5.9 ml of Hcl 1M after heat sterilization.
(§3) A stock solution was made for each component. The stock was 25 times the maximal used concentration. A successive amount from 0 to 900 μl of these stocks, making the concentration range, was pipetted in 10, 50 ml capped test tubes.
(§4) Subsequently, 25 ml of warm (80-90° C.) MEA agar was pipetted, using a sterile 25 ml pipette, in the tubes and the tubes were vortexed slowly but vigorously. Next, the component containing agar was poured out in 9 cm Petri dishes. Besides single components against single moulds, combinations of propionate with potassium cinnamate or vanillin were tested on solid agar. To prepare these binary combinations 6.25 ml of a 4 times concentrated component was mixed with the other components that was also 4 times concentrated. The mix of components were mixed with 12.5 ml double concentrated MEA to reach the preferred concentrations.
(§5) After the plates were dried a dot was spotted at the backside and in the centre of the petridish 0.5 μl of the mould spore solution was spotted on the agar targeting the dot in the centre. When the drop was dried in, the plates were placed bottom down in the incubator at 25° C.
(§6) The growth of colonies was determined by measurement of the colony diameter at different points in time. The growth curves were converted to dose response curves as described in 2.6.
(§7) The data from the agar plate experiments were obtained by measuring the colony size changes. The change in time was interpreted as growth speed and growth curves were plotted.
(§8) To convert the growth curves to dose response curves the μ Max (maximum growth rate) was calculated per concentration of antimicrobial component. The curves were fitted to a Logistic Dose Response (LDR) Intercept Form (Equation 8013) using Table curve 2D version 5.1

mould cocktail = test: combinations of components in model drink in 96-well microtiter plates, visual observation of growth; format: cell-based, Fusarium oxisporum, Byssoaclamys fulva, Penicillium sp; details: 3 weeks at 20°
Procedure: The tests where two components or more components were combined in model drink were carried out in sterile 96-well microtiter plates. Sterile matrix was prepared according recipe of Nestle with increasing quantities of two different inhibitors. The concentrations of each inhibitor were presented in 8 equal concentration steps that ranged from 0 to 1-2 times the (estimated) MIC value of particular mould for a particular inhibitor resulting in 64 different media. 200 μl of each medium was transferred to a panel of a sterile 96-well microtiter plate.
Completed well plates were stored at 4° C. until further use. The data was obtained via optical observation of growth.
Spores of all moulds were collected via the method as described in 2.3. Spores were counted using the Burker-turk method and adjusted to a log 5 per ml in PFZ and mixed to a homologue suspension. This suspension was diluted 100 times for inoculation.
In order to have an idea of the efficacy of the combination of propionate, vanillin and potassium cinnamate in model drink, some experiments were done in microwells plates. These experiments were visually observed after 3 weeks of incubation at 20° and used as pre-application experiments in order to create an expectation for the efficacy of the components in long term application experiments. The data that is shown in table 5 below is divided in “+” and “−”. The “+” means visible growth, while the “−” means no visible growth of the mould cocktail at the specific concentrations. […] However, combined with an amount of nearly 400 ppm of propionate and 75 ppm of vanillin the model drink is stable for at least 3 weeks.

pure cultures of moulds = test: single components and binary combinations on MEA agar plates against pure cultures of moulds (colony diameter); format: cell-based, Fusarium oxisporum, Byssoaclamys fulva, Penicillium sp
Procedure: as §1, §2, §3, §4, §5, §6, §7
To convert the growth curves to dose response curves the μ Max (maximum growth rate) was calculated per concentration of antimicrobial component. […]

[1] = test system: Byssoaclamys fulva (Bysful2); test: MEA agar plate colony growth test; format: cell-based; details: single component, agar plates
Procedure: as §1, §2, §3, §4, §5, §6, §7, §8

| Structure (SMILES) | growth of Penicillium (Penicillium sp (Pen381); after 100 ppm) | inhibition of Penicillium (Penicillium sp (Pen381); levels up to 200 ppm) | inhibition of the growth of the mould cocktail (mould cocktail; 350 ppm alone) | visible growth of mould cocktail (mould cocktail; Kcinnamate 0.0050% (w/v)) | visible growth of mould cocktail (mould cocktail; Kcinnamate 0.0100% (w/v)) | visible growth of mould cocktail (mould cocktail; Kcinnamate 0.0150% (w/v)) | visible growth of mould cocktail (mould cocktail; Kcinnamate 0.0200% (w/v)) | visible growth of mould cocktail (mould cocktail; Kcinnamate 0.0250% (w/v)) | visible growth of mould cocktail (mould cocktail; Kcinnamate 0.0300% (w/v)) | visible growth of mould cocktail (mould cocktail; Kcinnamate 0.0350% (w/v)) | sensitivity of all moulds to the component (pure cultures of moulds) | amount needed for an overall inhibition of all moulds (pure cultures of moulds; single component, also printed as 900 ppm) | concentration at which Byssoclamys is inhibited [1] | concentration at which Penicillium is inhibited (Penicillium sp (Pen381)) |
| --- | --- | --- | --- | --- | --- | --- | --- | --- | --- | --- | --- | --- | --- | --- |
| O=C([O-])C=Cc1ccccc1.[K+] [potassium cinnamate] | dramatic increase | not inhibited | not sufficient | + | + | + | + | + | + | + |  |  |  |  |
| COc1cc(C=O)ccc1O [vanillin, 4-Hydroxy-3-methoxybenzaldehyde] |  |  |  |  |  |  |  |  |  |  | sensitive | approximately 0.09% |  |  |
| CCC(=O)O [propionate, Propionic acid] |  |  |  |  |  |  |  |  |  |  | sensitive |  | approximately 0.15% | approximately 0.15% |
